# Legend:
# [1] = LogP by HPLC on reversed phase columns (EEC directive 79/831 Annex V.A8); format: physicochemical; conditions: reversed phase HPLC columns
# Summary of the method: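 Reversed-phase HPLC per EEC directive 79/831 Annex V.A8. Calibrated with straight-chain alkan-2-ones (C3–C16) of known LogP, LogP from retention times by linear interpolation between successive alkanones. Lambda-max taken from UV spectra (200–400 nm) at chromatographic peak maxima.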
# [2] = system: Colletotrichum lindemuthianum; assay: Colletotrichum lindemuthianum in vitro cell test; format: cell-based; conditions: 144 h, 20 ppm of active ingredient, 6 days incubation, read-out: efficacy (inhibition of fungal growth)
# Protocol: (§1) • Solvent: DMSO • Culture medium: 14.6 g anhydrous D-glucose (VWR), 7.1 g Mycological Peptone (Oxoid), 1.4 g granulated Yeast Extract (Merck), QSP 1 liter • Inoculum: spores suspension
# (§2) Fungicides were solubilized in DMSO and the solution used to prepare the required range of concentrations. The final concentration of DMSO used in the assay was ≤[…]1%.
# A spore suspension of C. lindemuthianum was prepared and diluted to the desired spore density.
# (§3) Fungicides were evaluated for their ability to inhibit spores germination and mycelium growth in liquid culture assay. The compounds were added in the desired concentration to the culture medium with spores. After 6 days incubation, fungi-toxicity of compounds was determined by spectrometric measurement of mycelium growth. Inhibition of fungal growth was determined by comparing the absorbance values in wells containing the fungicides with the absorbance in control wells without fungicides.
# [3] = system: Alternaria alternata; assay: Alternaria alternata in vitro cell test; format: cell-based; conditions: 120 h, 20 ppm of active ingredient, 5 days incubation, read-out: efficacy (inhibition of fungal growth)
# Protocol: as §1, §2
# A spore suspension of A. alternata was prepared and diluted to the desired spore density.
# as §3, with “inhibit spore” for “inhibit spores”, “After 5” for “After 6”
# [4] = system: Pseudomonas syringae pv. tomato; assay: Pseudomonas syringae pv. tomato in vitro cell test; format: cell-based; conditions: 20 ppm of active ingredient, 24 h incubation, read-out: efficacy (inhibition of bacteria growth)
# Protocol: Culture medium: LB broth medium (Luria Broth Miller) Sigma
# Inoculum: bacteria suspension
# Compounds were solubilized in DMSO and the solution used to prepare the required range of concentrations. The final concentration of DMSO used in the assay was 1%.
# (§4) Inoculum was prepared from a pre-culture of bacteria grown in liquid medium and diluted to the desired optical density (OD).
# (§5) Compounds were evaluated for their ability to inhibit bacteria growth in liquid culture assay. The compounds were added in the desired concentrations to culture medium containing the bacteria suspension. After 24 h of incubation, the efficacy of compounds was determined by spectrometric measurement of bacteria growth. Inhibition was determined by comparing the absorbance values in wells containing the compounds with the absorbance in control wells without active ingredients.
# [5] = system: Xanthomonas campestris pv. campestris; assay: Xanthomonas campestris pv. campestris in vitro cell test; format: cell-based; conditions: 20 ppm of active ingredient, 24 h incubation, read-out: efficacy (inhibition of bacteria growth)
# Protocol: • Solvent: DMSO • Culture medium: LB broth medium (Luria Broth Miller) Sigma • Inoculum: bacteria suspension
# Compounds were solubilized in DMSO and the solution used to prepare the required range of concentrations. The final concentration of DMSO used in the assay was ≤1%.
# as §4, §5
# [6] = system: salicylate responsive promoter sequence of the PR1 (pathogenesis-related protein I) gene (AT2G14610); assay: Induction of defense gene expression in Arabidopsis thaliana (PR1 promoter-GFP reporter plants); format: in vivo; conditions: Arabidopsis thaliana, 72 h, 3rd day after spraying, mock treated leaves set as 1.00, read-out: relative fluorescence value; for fold induction at 75 ppm: 75 ppm of compound
# Protocol: Arabidopsis thaliana reporter plants containing the coding sequence of a green fluorescent protein (GFP) linked to the salicylate responsive promoter sequence of the PR1 (pathogenesis-related protein I) gene (AT2G14610) were grown for five days and then sprayed with compounds. On the 3rd day after spraying, plant fluorescence was assessed with a MacroFluo instrument from Leica Microsystems (Wetzlar, Germany). Fluorescences were quantified with the Meta-Morph Microscopy Automation & Image Analysis Software (Molecular Devices, Sunnyvale, Calif., United States). Background fluorescence in mock treated leaves was set as 1.00.
# [7] = system: Peronospora parasitica; assay: In vivo preventive test on Peronospora parasitica (Crucifer downy mildew); conditions: Hyaloperonospora parasitica, in Brassica oleracea, 120 h, cabbage, evaluated 5 days after inoculation, read-out: efficacy; for pest or weed control at 31 ppm: 31 ppm of active ingredient; for pest or weed control at 125 ppm: 125 ppm of active ingredient; for pest or weed control at 500 ppm: 500 ppm of active ingredient
# Protocol: (§6) The tested active ingredients were prepared by homogenization in a mixture of acetone/Dimethyl sulfoxide/Tween®, and then diluted with water to obtain the desired active material concentration. The young plants of cabbage were treated by spraying the active ingredient prepared as described above. Control plants were treated only with an aqueous solution of acetone/Dimethyl sulfoxide/Tween®.
# After 72 hours, the plants were contaminated by spraying the leaves with an aqueous suspension of Peronospora parasitica spores. The contaminated cabbage plants were incubated for 5 days at 20° C. and at 100% relative humidity.
# The test was evaluated 5 days after the inoculation. 0% means an efficacy which corresponds to that of the control plants while an efficacy of 100% means that no disease was observed.
# Compounds CMP2 and CMP3 were tested in an in vivo preventive test on Peronospora parasitica (Crucifer downy mildew) in the same conditions as described in Example G.
# [8] = system: Uromyces appendiculatus; assay: In vivo preventive test on Uromyces appendiculatus (bean rust); conditions: 240 h, evaluated 10 days after inoculation, read-out: efficacy; for pest or weed control at 500 ppm: 500 ppm of active ingredient; for pest or weed control at 125 ppm: 125 ppm of active ingredient
# Protocol: as §6, with “bean” for “cabbage”
# (§7) After 72 hours, the plants were contaminated by spraying the leaves with an aqueous suspension of Uromyces appendiculatus spores. The contaminated bean plants were incubated for 24 hours at 20° C. and at 100% relative humidity and then for 9 days at 20° C. and at 70-80% relative humidity. The test was evaluated 10 days after the inoculation. 0% means an efficacy which corresponds to that of the control plants while an efficacy of 100% means that no disease was observed.
# Compounds CMP5 and CMP6 were tested in an in vivo preventive test on Uromyces appendiculatus (bean rust) in the same conditions as described in Example I.
# [9] = system: Colletotrichum lindemuthianum; assay: In vivo preventive test on Colletotrichum lindemuthianum (Antrachnose on bean); conditions: 144 h, 500 ppm of active ingredient, inoculation 72 h after spraying, evaluated 6 days after inoculation, read-out: efficacy
# Protocol: as §6, with “bean” for “cabbage”
# as §7, with “of Colletotrichum lindemuthianum” for “of Uromyces appendiculatus”, “for 5” for “for 9”, “at 90%” for “at 70-80%”, “evaluated 6” for “evaluated 10”
# Compound CMP1 was tested in an in vivo preventive test on Colletotrichum lindemuthianum (Antrachnose on bean) in the same conditions as described in Example F.
# [10] = system: Xanthomonas campestris pv. campestris; assay: In vivo preventive test on Xanthomonas campestris pv. campestris (black rot on cabbage); conditions: evaluated 8 or 10 days after inoculation, read-out: efficacy; for pest or weed control at 125 ppm: 125 ppm of active ingredient; for pest or weed control at 31 ppm: 31 ppm of active ingredient
# Protocol: The tested active ingredients were prepared by homogenization in a mixture of acetone/Dimethyl sulfoxide/Tween®, and then diluted with water to obtain the desired active material concentration.
# The young plants of cabbage were treated by spraying the active ingredient prepared as described above. Control plants were treated only with an aqueous solution of acetone/Dimethyl sulfoxide/Tween®.
# After 72 hours, the plants were contaminated by spraying the leaves with an aqueous bacteria suspension of Xanthomonas campestris pv. campestris. The contaminated cabbage plants were incubated for 8 or 10 days at 27° C. at 95% relative humidity.
# The test was evaluated 8 or 10 days after the inoculation. 0% means an efficacy which corresponds to that of the control plants while an efficacy of 100% means that no disease was observed. […]
# Compounds CMP1, CMP2, CMP3 and CMP4 were tested in an in vivo preventive test on Xanthomonas campestris pv. campestris (black rot on cabbage) in the same conditions as described in Example H.
# [11] = system: Pseudomonas syringae pv. tomato; assay: In vivo preventive test on Pseudomonas syringae pv. tomato (bacterial speck on tomato); conditions: 31 ppm of active ingredient, evaluated 5 or 6 days after inoculation, read-out: efficacy
# Protocol: as §6, with “tomato” for “cabbage”
# After 72 hours, the plants were contaminated by spraying the leaves with an aqueous bacteria suspension of Pseudomonas syringae pv. tomato. The contaminated tomato plants were incubated for 4 days in saturated atmosphere at 22° C. day/20° C. night—70% HR and then for 1 or 2 days at 22° C. day/20° C. night at 70-80% relative humidity.
# The test was evaluated 5 or 6 days after the inoculation. 0% means an efficacy which corresponds to that of the control plants while an efficacy of 100% means that no disease was observed.
# Compounds CMP1 and CMP4 were tested in an in vivo preventive test on Pseudomonas syringae pv. tomato (bacterial speck on tomato) in the same conditions as described in Example J.
# [12] = method [a]: LC-UV, in an acidic range, with 0.1% formic acid in water and acetonitrile as eluent (linear gradient from 10% to 95% acetonitrile)
# [13] = method [a]: LC-UV, acidic range, 0.1% formic acid in water and acetonitrile as eluent (linear gradient 10% to 95% acetonitrile)
"chromatographic logP ([1]; given in the preparation examples, method not marked)","chromatographic logP [1, 12]","chromatographic logP [1, 13]",SMILES,inhibition at 20 ppm [2],inhibition at 20 ppm [3],inhibition at 20 ppm [4],inhibition at 20 ppm [5],fold induction at 75 ppm [6],fold induction at 300 ppm [6],pest or weed control at 31 ppm [7],pest or weed control at 125 ppm [7],pest or weed control at 500 ppm [7],pest or weed control at 500 ppm [8],pest or weed control at 500 ppm [9],pest or weed control at 125 ppm [10],pest or weed control at 125 ppm [8],pest or weed control at 31 ppm [10],pest or weed control at 31 ppm [11],pest or weed control at 8 ppm ([8]; 8 ppm)
4.01,4.01,–,"CCSC(=O)C1(NC(=O)c2sc(Cl)c(Cl)c2Cl)CC1 [I.011, S-ethyl 1-{[(3,4,5-trichloro-2-thienyl)carbonyl]amino}cyclopropanecarbothioate]",≤ 30%,≤ 30%,≤ 30%,≤ 30%,> 2,> 2,90 to 100%,90 to 100%,90 to 100%,–,–,–,–,–,–,–
–,4.89,–,CCOC(=O)C(NC(=O)c1sc(Cl)c(Cl)c1Cl)c1ccccc1 (stereo not drawn) [I.064],≤ 30%,≤ 30%,≤ 30%,≤ 30%,–,> 2,80 to 89%,90 to 100%,90 to 100%,90 to 100%,80 to 89%,70 to 79%,–,–,–,–
–,2.75,–,CCOC(=O)C(CO)NC(=O)c1sc(Cl)c(Cl)c1Cl (stereo not drawn) [I.078],–,≤ 30%,≤ 30%,≤ 30%,> 2,> 2,90 to 100%,90 to 100%,90 to 100%,90 to 100%,90 to 100%,–,90 to 100%,–,–,–
–,–,4.54,COC(=O)[C@H](CC(=O)OC(C)(C)C)NC(=O)c1sc(Cl)c(Cl)c1Cl [I.136],–,≤ 30%,≤ 30%,≤ 30%,> 2,> 2,90 to 100%,90 to 100%,–,–,–,70 to 79%,–,80 to 89%,–,–
–,–,4.12,CCOC(=O)C[C@H](NC(=O)c1sc(Cl)c(Cl)c1Cl)C(=O)OCC [I.138],–,≤ 30%,≤ 30%,≤ 30%,> 2,> 2,90 to 100%,90 to 100%,–,–,–,–,90 to 100%,70 to 79%,90 to 100%,–
–,–,3.41,CCOC(=O)C(CSC(C)=O)NC(=O)c1sc(Cl)c(Cl)c1Cl (stereo not drawn) [I.145],–,≤ 30%,≤ 30%,≤ 30%,> 2,> 2,90 to 100%,90 to 100%,–,–,–,90 to 100%,90 to 100%,90 to 100%,80 to 89%,–
–,–,2.67,CC(C)[C@H](NC(=O)c1sc(Cl)c(Cl)c1Cl)C(N)=O [I.147],≤ 30%,≤ 30%,≤ 30%,≤ 30%,–,–,–,90 to 100%,90 to 100%,90 to 100%,–,–,90 to 100%,–,–,≥ 90%

# From patent US20230055705A1, “SUBSTITUTED THIOPHENE CARBOXAMIDES AND DERIVATIVES THEREOF” (Bayer Aktiengesellschaft, priority 2019, published 2023)
